Data on five compounds can be found in patent US7402417B2, “P450 oxygenases and methods of use” (Washington State University Research Foundation, priority 2003, dated 2008).

In one assay the test system is 5α-hydroxylase. To be noted: 100 μM inhibitor; cited from earlier work.
The target of assay [1] is T1, recombinant taxoid 5α-hydroxylase (clone S1) (Taxus cuspidata, UniProt Q6WG30).
T1 construct: the S1 ORF was amplified using Pfu DNA polymerase and gene-specific primers containing a BamHI site immediately upstream of the start codon; made in house; host or cells: Spodoptera frugiperda Sf9 cells (baculovirus, pFastBac1); microsomal membranes
The assay can be described thus: Kinetic evaluation with Sf9 microsomes enriched in recombinant 5α-hydroxylase (radio-HPLC, Michaelis-Menten). It is filed as biochemical. To be noted: recombinant enzyme, 200 μM NADPH plus regenerating system. The method, then:
Kinetic constants for both isomers were next evaluated (at a saturating 200 μM concentration of NADPH plus regenerating system; Shimada and Yamazai, Meth. Mol. Biol., 107:85-93, 1998). The isolated microsomes were resuspended in 50 mM Hepes, pH 7.5, containing 1 mM DTT and 5% (v/v) glycerol, and the 1 ml reactions (˜600 μg protein, 50 μM substrate dissolved in DMSO, and the requisite cofactors (e.g., NADPH plus regenerating system) were run as described previously, with the identical protocols for product analysis (Jennewein et al., Proc. Natl. Acad. Sci. USA, 98:13595-13600, 2001). DMSO was without influence on the reaction. For kinetic evaluation, following the establishment of linear reaction conditions in protein concentration and time, the response to substrate concentration was plotted by the Michaelis-Menten method (Sigmaplot 7.0) using the calibrated radio-HPLC protocol for product determination Data from three independent experiments were pooled and the line of best fit taken (R^2>0.99).

The subject of assay [2] is microsomal 5α-hydroxylase activity. Briefly: Kinetic evaluation with Taxus suspension cell microsomes (radio-HPLC, total product). The format is biochemical, Taxus media hicksii. Particulars: T. media suspension cell microsomes, [20-3H] substrate. The method, then: Preparation of Taxus suspension cell microsomes and assays for microsomal 5α-hydroxylase activity were carried out as previously described (Hefner et al., Chem. Biol., 3:479489, 1996; Lovy Wheeler et al., Arch. Biochem. Biophys., 390:265-278, 2001) with the following modifications: Unelicited Taxus media hicksii cells were harvested 14 days after transfer, separated from the media, frozen in liquid N2 and ground to a fine powder with a mortar and pestle, with extraction and microsome preparation as described by Lovy Wheeler et al. (Arch. Biochem. Biophys., 390:265-278, 2001). The previously described radio-HPLC-based assay (Lovy Wheeler et al., Arch. Biochem. Biophys., 390:265-278, 2001) was employed to separate the substrate from taxadien-5α-ol and polyols derived therefrom which were summed as “total product” for the purpose of rate determination.
Following the confirmation of linear reaction conditions in protein concentration and time, kinetic constants were determined for both [20-3H]taxa-4(5),11(12)-diene and [20-3H]taxa-4(20),11(12)-diene with the optimized assay (Hefner et al., Chem. Biol., 3:479-489, 1996). The radio-HPLC-based assay previously described by Lovy Wheeler et al. (Arch. Biochem. Biophys., 390:265-278, 2001) was employed to permit summing of taxadien-polyols derived subsequently from the initially formed taxadienol product generated by this microsomal system that contains all of the downstream cytochrome P450 taxoid oxygenases of the pathway (Lovy Wheeler et al., Arch. Biochem. Biophys., 390:265-278, 2001).
Thus, one or more constituents of the crude Taxus microsomal protein preparation catalyze the reaction of taxa-4(5),11(12)-diene and taxa-4(20),11(12)-diene to the corresponding taxadienols.

Assay [3] addresses T2, clone S1 taxoid 5α-hydroxylase in Saccharomyces cerevisiae WAT11 (Taxus cuspidata, UniProt Q6WG30).
T2 construct: expressed in transfected cells; host or cells: Saccharomyces cerevisiae strain WAT11
The assay can be described thus: In vivo feeding of labeled substrate to yeast expressing clone S1, radio-HPLC and GC-MS of products. The format is cell-based. To be noted: 30 μM substrate. An excerpt: This in vivo feeding protocol eliminated the uncertainties associated with microsome isolation and in vitro assay, including the instability of P450 oxygenases in yeast membranes (Schoendorf et al., Proc. Nail. Acad. Sci. USA, 98:1501-1506, 2001).
Transformed and induced yeast cells were harvested by centrifugation as described in Example 2. As a negative control for the feeding experiments, the yeast host was transformed with the pYES2.1/V5-HIS-TOPO™ vector containing a β-glucuronidase insert instead of the cytochrome P450 S1 clone. The cells were resuspended in 3 ml of fresh YPLA medium to which 30 μM of the labeled test substrate was added. Test substrates included:
The cell and test substrate suspension was incubated overnight at 30° C. with mixing (250 rpm). The incubation mixture was then treated for 15 minutes in a sonication bath and extracted twice with 3 ml of hexane:ethyl acetate (4:1 v/v). The organic extract was then dried under N2, the residue dissolved in 100 μl of acetonitrile, and an aliquot was separated by reversed-phase radio-HPLC (250 mm×4.6 mm column of Alltech (Deerfield, Ill.) Econosil C18 (5 μm); flow rate of 1 ml/min; with radio-detection of the effluent (Flow-One-Beta Series A-1000, Radiomatic Corp., Meriden, Conn.)). The following gradient was employed: 0-5 minutes at 100% Solvent A (97.99% H2O with 2% CH3CN and 0.01% H3PO4 (v/v)), 5-15 minutes at 0-50% Solvent B (99.99% CH3CN with 0.01% H3PO4 (v/v)), 15-55 minutes at 50-100% Solvent B, 55-65 minutes at 100% Solvent B, 65-70 minutes at 0-100% Solvent A, 70-75 minutes at 100% Solvent A. The HPLC eluant was collected in 1 minute fractions and the appropriate fractions containing the radiolabeled product were combined, dried under a stream of N2, and dissolved in the minimum volume of benzene for GC-MS analysis.
GC-MS analyses were performed on a Hewlett-Packard 6890 GC-MSD system using a ZB-5 capillary column (Phenomenex (Torrance, Calif.); 30 m length; 0.25 mm inner diameter; coated with a 0.25 μm film of phenyl (5%) polysiloxane). Cool on-column injection was used, with He flow rate of 0.7 ml/min and a temperature program from 40° C. to 320° C. at 20° C./min. Spectra were recorded at 70 eV.

In assay [4] the test system is microsomal taxa-4(5),11(12)-diene isomerase activity. The assay can be described thus: Assay for microsomal taxadiene isomerase activity and pH-dependent isomerization. The format is biochemical. To be noted: Taxus or Spodoptera microsomes, no NADPH or no O2, or CO, miconazole, clotrimazole, boiled controls. The protocol:
The assay for microsomal taxa-4(5),11(12)-diene isomerase activity (and the reverse isomerization) was carried out under standard cytochrome P450 oxygenase conditions but in the absence of NADPH or O2, or in the presence of inhibitory concentrations of CO, miconazole or clotrimazole (under conditions described previously for which the rate of 5α-hydroxylation is negligible (Hefner et al., Chem. Biol., 3:479489, 1996)). A number of additional, potential cofactors were also tested, including FAD, FADH2, FMN, FMNH2, NAD+, NADH and NADP+ (all at 2.5 mM), as well as MgCl2 (at 5.0 mM). The possibility of pH-dependent isomerization was tested by incubating each isomer (100 μM) in phosphate buffer (pH 4 to 10) for 12 hours at 31° C., with separation of isomers as described previously (Williams et al., Arch. Biochem. Biophys., 379:137-146, 2000).

A further assay deals with taxoid 5α-hydroxylase (Taxus cuspidata, UniProt Q6WG30). The assay can be described thus: Kinetic evaluation of taxadiene isomers, average of recombinant and T. media microsomes (FIG. 4). The format is biochemical. Particulars: average of recombinant (Sf9) and T. media microsomes; substrate 1 to 500 μM. The protocol:
Taxa-4(20),11(12)-diene (◯) and taxa-4(5),11(12)-diene (●) were evaluated with microsomes from S. formgiperda cells enriched with 50 pmol recombinant taxoid 5α-hydroxylase (A), and with microsomes from T. media suspension cells containing about 50 pmol of total native cytochrome P450 (B). Substrate Concentration range was varied from 1 to 500 μM in all cases.

The target of assay [5] is T1, recombinant taxoid 5α-hydroxylase (clone S1). Briefly: Substrate binding spectra with Sf9 microsomes enriched in recombinant 5α-hydroxylase. Particulars: no NADPH. The protocol: Microsomes from S. frugiperda cells enriched with 200 pmol recombinant taxoid 5α-hydroxylase (clone S1) were employed. Taxa-4(20),11(12)-diene was assayed over a concentration range from 0.1 to 10 μM, and a binding constant (Ks) of 4±1 μM was determined (upper graph). Taxa-4(5),11(12)-diene was assayed over a concentration range of 0.1 to 20 μM and a binding constant (Ks) of 6.5±1.5 μM was determined (lower graph).
Binding spectra for both taxadiene isomers (in the absence of NADPH) were then recorded using the Sf9 cell microsomes enriched in the recombinant 5α-hydroxylase. Substrate binding spectra were obtained as described by Schenkin and Jausson, Methods Mol. Biol. (Cytochrome P450 Protocols), 107:25-33, 1998) using a Perkin-Elmer Lambda 18 spectrophotometer (Haudenschild et al., Arch. Biochem. Biophys., 379:127-136, 2000). Substrate binding spectra were recorded with up to 200 pmol of recombinant microsomal cytochrome P450 enzyme (as determined by CO-difference spectral analysis) per cuvette in 100 mM sodium phosphate buffer at pH 7.5. In preparation for binding studies, the taxadiene isomers were each dissolved in DMSO and 1 μl additions to the sample were made to a final concentration of 1.5% (v/v). For data analysis, Spectrum for Windows (Perkin-Elmer Corp., Wellesey, Mass.) and Sigmaplot 7.0 (SPSS Inc., Chicago, Ill.) were employed and experiments were run in triplicate.

Assay [6] concerns native microsomal 5α-hydroxylase. To be noted: native microsome preparations from yew stem tissue, determined previously; cited from earlier work.
Another assay has as its target T3, taxoid 13α-hydroxylase (Taxus cuspidata, UniProt Q8W4T9).
T3 construct: expressed in transfected cells
Briefly: Feeding to yeast that functionally express taxoid 13α-hydroxylase. The format is cell-based. To be noted: product of clone S1 enzyme fed to 13α-hydroxylase yeast. The source says: The taxa-4(20),11(12)-dien-5α-ol radiolabeled product of the clone S1 enzyme was isolated by HPLC, and the purified material was fed to yeast that functionally express the previously characterized taxoid 13α-hydroxylase (Jennewein et al., Proc. Natl. Acad. Sci. USA, 98:13595-13600, 2001). As discussed above, 13α-hydroxylation of a paclitaxel intermediate is believed to follow 5α-hydroxylation in the paclitaxel biosynthetic pathway (Floss and Mocek, Taxol: Science and Applications, CRC Press, Boca Raton, 191-208, 1995; and Croteau et al., Curr. Top. Plant Physiol. 15:94-104, 1996). Thus, as expected, taxa-4(20),11(12)-dien-5α-ol was quantitatively converted to taxa-4(20),11(12)-dien-5α,13α-diol by the 13α-hydroxylase.

Where [7] appears, read: overnight at 30° C., radio-HPLC.
[8] abbreviates: FIG. 3, microsomes with 200 pmol recombinant enzyme, read-out: binding constant (Ks).
The mark [9] stands for this setting: over a 100-fold range of substrate concentrations, pH 7.5, read-out: substrate binding constant (Ks), variation.

SMILES strings stand for the structures. Like-named read-outs stand apart in the source and are kept apart here. Where only a bound is given, the exact number is not on record here.

T2 sequence (Q6WG30 with tags, fused parts or gaps limits assumed): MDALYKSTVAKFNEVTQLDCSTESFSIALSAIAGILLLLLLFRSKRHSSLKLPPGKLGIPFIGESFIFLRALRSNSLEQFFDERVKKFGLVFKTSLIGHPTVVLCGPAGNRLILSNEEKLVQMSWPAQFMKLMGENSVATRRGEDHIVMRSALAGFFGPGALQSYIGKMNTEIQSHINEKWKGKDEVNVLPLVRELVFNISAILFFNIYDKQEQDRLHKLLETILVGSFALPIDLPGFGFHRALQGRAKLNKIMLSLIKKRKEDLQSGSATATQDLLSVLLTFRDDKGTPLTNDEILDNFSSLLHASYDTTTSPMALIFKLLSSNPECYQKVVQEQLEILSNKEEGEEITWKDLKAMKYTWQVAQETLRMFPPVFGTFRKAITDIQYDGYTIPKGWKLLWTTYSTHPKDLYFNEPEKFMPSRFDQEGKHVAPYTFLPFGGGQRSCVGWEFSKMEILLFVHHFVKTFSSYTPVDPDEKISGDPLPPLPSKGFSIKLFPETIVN
T1 sequence (Q6WG30 with tags, fused parts or gaps): as the sequence (Q6WG30 with tags, fused parts or gaps limits assumed) above
Chain of taxoid 5α-hydroxylase (Q6WG30 whole entry): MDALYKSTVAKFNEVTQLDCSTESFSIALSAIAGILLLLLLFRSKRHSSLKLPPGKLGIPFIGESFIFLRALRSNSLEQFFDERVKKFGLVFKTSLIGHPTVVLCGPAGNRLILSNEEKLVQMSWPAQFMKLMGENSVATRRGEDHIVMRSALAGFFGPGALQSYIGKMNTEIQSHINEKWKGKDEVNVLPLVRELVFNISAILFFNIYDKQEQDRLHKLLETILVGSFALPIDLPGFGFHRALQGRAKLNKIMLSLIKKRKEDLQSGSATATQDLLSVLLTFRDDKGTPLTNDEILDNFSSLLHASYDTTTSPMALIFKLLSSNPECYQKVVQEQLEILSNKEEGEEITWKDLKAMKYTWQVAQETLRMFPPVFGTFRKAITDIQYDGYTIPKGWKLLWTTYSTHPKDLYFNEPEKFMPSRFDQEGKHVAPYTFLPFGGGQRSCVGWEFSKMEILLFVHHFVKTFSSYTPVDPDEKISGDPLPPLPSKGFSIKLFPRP
T3 sequence (Q8W4T9 whole entry): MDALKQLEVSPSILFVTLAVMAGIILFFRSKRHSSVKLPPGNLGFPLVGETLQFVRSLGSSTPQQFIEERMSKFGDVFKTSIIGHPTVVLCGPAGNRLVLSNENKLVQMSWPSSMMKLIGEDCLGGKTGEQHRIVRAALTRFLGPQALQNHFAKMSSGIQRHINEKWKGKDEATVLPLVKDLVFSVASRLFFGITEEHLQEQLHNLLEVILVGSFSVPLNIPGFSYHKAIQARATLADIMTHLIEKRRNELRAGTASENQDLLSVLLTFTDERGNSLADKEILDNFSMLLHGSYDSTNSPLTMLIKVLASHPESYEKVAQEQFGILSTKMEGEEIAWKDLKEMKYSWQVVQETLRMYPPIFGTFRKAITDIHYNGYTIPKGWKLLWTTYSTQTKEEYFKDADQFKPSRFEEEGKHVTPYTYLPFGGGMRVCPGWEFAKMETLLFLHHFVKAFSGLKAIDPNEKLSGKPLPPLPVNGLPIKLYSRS

In the case of `Clc1ccccc1C(c1ccccc1)(c1ccccc1)n1ccnc1` [clotrimazole], the “hydroxylation activity in the presence of the inhibitor” value in the assay on 5α-hydroxylase is listed as “negligible”.
`Clc1ccc(COC(Cn2ccnc2)c2ccc(Cl)cc2Cl)c(Cl)c1` (stereo not shown) [miconazole]: in the assay on 5α-hydroxylase, the “hydroxylation activity in the presence of the inhibitor” value is reported as “negligible”.
Consider `CC1=CCC[C@@]2(C)CCC3=C(C)CC[C@@H](C[C@H]12)C3(C)C` [taxa-4(5),11(12)-diene], for which the Vrel in assay [1] and in [2] was 100 throughout. Also, the figures for the Km in assay [2] and in [6] were 48 µM and around 6 µM, respectively. For the same compound, the “conversion to more polar products” value in assay [3] (setting [7]) is “almost quantitatively”. The “share of minor product taxadien-diol” value in [3] (setting [7]) was below 50%. For the same compound, the “share of principal product taxa-4(20),11(12)-dien-5α-ol” value in [3] (setting [7]) is on record as above 92%. The “isomerization to the other taxadiene positional isomer” value was “No isomerization” in [4] and “not observed” in [4] (listed as 3). For the same compound, on taxoid 5α-hydroxylase, the “Vrel (average)” value stood at 100. The Kd in assay [5] (setting [8]) is 6.5 ± 1.5 µM; in [5] (setting [9]) it was 5 to 8 µM.
For `C=C1[C@H]2C[C@@H]3CCC(C)=C(CC[C@]2(C)CC[C@@H]1O)C3(C)C` [taxa-4(20),11(12)-dien-5α-ol], the “conversion to taxa-4(20),11(12)-dien-5α,13α-diol” value at taxoid 13α-hydroxylase is “quantitatively”.
Consider `C=C1CCC[C@@]2(C)CCC3=C(C)CC[C@@H](C[C@H]12)C3(C)C` [taxa-4(20),11(12)-diene], for which the Vrel in assay [1] worked out at 120; in assay [2] it was 150. Also, in assay [2], the Km came to 27 µM. The “share of minor product taxadien-diol” value in assay [3] (setting [7]) is around 8%. The “share of principal product taxa-4(20),11(12)-dien-5α-ol” value in [3] (setting [7]) is on record as around 90%. In addition, the “share of other minor metabolites in product mix” value in assay [3] (also formed in negative control) is reported as around 2%. Moreover, the “isomerization to the other taxadiene positional isomer” value in assay [4] is “No isomerization”. The “Vrel (average)” value on taxoid 5α-hydroxylase came out at 135. The Kd in assay [5] (setting [8]) was 4 ± 1 µM; in assay [5] (setting [9]), 3 to 5 µM.

What is called Km is the concentration of substrate that gives half-maximal velocity.
